The values below come from patent publication US20240139167A1, “LYSOSOME-ASSOCIATED MEMBRANE PROTEIN TARGETING COMPOUNDS AND USES THEREOF” (HADASIT MEDICAL RESEARCH SERVICES AND DEVELOPMENT LTD., priority 2021, published 2024).

Molecules are shown by their SMILES. “Also recorded” adds a separate entry of the source.

One series deals with Gbe^ys/ys mice. The series can be described thus: Blood metabolic panel in Gbe^ys/ys mice. The series is classed as in vivo. The protocol: FIGS. 3A-3I include a graph of the effect of Compound 1 on in vivo metabolism; mice were monitored by the Promethion High-Definition Behavioral Phenotyping System (Sable Instruments, Inc.) over a 24 hr period. Effective mass was calculated by power of 0.75. Data are mean±SEM from n=11 9 months old mice in the wt. control vehicle arm, n=6 9 months old mice in the GBE^ys/ys vehicle arm and n=7 9 months old mice in the Gbe^ys/ys 144DG11 (Compound 1)-treated arm. All injections were from the age of 4 months. […] Blood metabolic panel based on n=5, 9.5 months old mice treated as indicated (3I). Blood glucose was increased, and blood triglycerides decreased in Gbe^ys/ys […] by Compound 1 (p<0.05, Student's t-tests). *p<0.05 v wt. controls, #p<0.05 v GBE^ys/ys vehicle treated mice;
The inventors further tested whether Compound 1 is able to correct the hypoglycemia and hyperlipidemia observed in Gbe^ys/ys mice. Such an effect is expected from an agent capable of inducing the catabolism of liver glycogen with an ensuing rise in blood glucose. […] Muscle (creatine kinase) and liver (alanine transferase) functions were not affected by this treatment (FIG. 3I).

A further series has as its system APBD cells. The series can be described thus: Proteomics (nano LC-MS/MS, LFQ). The format is cell-based, human. The protocol:
Sample preparation for MS analysis. Cell lysates in RIPA buffer containing protease inhibitors were clarified by centrifugation and […] of protein was used for protein precipitation by the chloroform/methanol method. The precipitated proteins were solubilized in 100 μl of 8 M urea, 10 mM DTT, 25 mM Tris-HCl pH 8.0 and incubated for 30 min at 22 ° C. Iodoacetamide (55 mM) was added, and samples were incubated for 30 min (22 ° C., in the dark), followed by addition of DTT (10 mM). Fifty μl of the samples was transferred into a new tube, diluted by the addition of 7 volumes of 25 mM Tris-HCl pH 8.0 and sequencing-grade modified Trypsin (Promega Corp., Madison, WI) was added (0.35 μg/sample) followed by incubation overnight at 37° C. with gentle agitation. The samples were acidified by addition of 0.2% formic acid and desalted on C18 home-made Stage tips. Peptide concentration was determined by Absorbance at 280 nm and 0.75 μg of peptides were injected into the mass spectrometer.
Nano LC-MS/MS analysis. MS analysis was performed using a Q Exactive-HF mass spectrometer (Thermo Fisher Scientific, Waltham, MA USA) coupled on-line to a nanoflow UHPLC instrument, Ultimate 3000 Dionex (Thermo Fisher Scientific, Waltham, MA USA). Peptides dissolved in 0.1% formic acid were separated without a trap column over a 120 min acetonitrile gradient run at a flow rate of 0.3 μl/min on a reverse phase 25-cm-long C18 column (75 μm ID, 2 μm, 100 Å, Thermo PepMapRSLC). The instrument settings were as previously described. Survey scans (300-1,650 m/z, target value 3E6 charges, maximum ion injection time 20 ms) were acquired and followed by higher energy collisional dissociation (HCD)-based fragmentation (normalized collision energy 27). A resolution of 60,000 was used for survey scans and up to 15 dynamically chosen most abundant precursor ions, with “peptide preferable” profile were fragmented (isolation window 1.6 m/z). The MS/MS scans were acquired at a resolution of 15,000 (target value 1E5 charges, maximum ion injection times 25 ms). Dynamic exclusion was 20 sec. Data were acquired using Xcalibur software (Thermo Scientific). To avoid a carryover, the column was washed with 80% acetonitrile, 0.1% formic acid for 25 min between samples.
MS data analysis. Mass spectra data were processed using the MaxQuant computational platform, version 1.6.14.0. Peak lists were searched against the Uniprot human FASTA sequence database from May 19, 2020, containing 49,974 entries. […] Relative protein quantification in MaxQuant was performed using the label-free quantification (LFQ) algorithm. […]
To validate the imaging-based analysis of the cell features modulated by the diseased state and by Compound 1, the inventors analyzed the effect of the disease and the treatment on protein expression. […]

In a further series the test system is PD primary fibroblasts. The series can be described thus: PAS staining of glycogen in Pompe disease fibroblasts. The note with it: 24 h, 50 μM; listed as 144DG11. The series is classed as cell-based, human. An excerpt:
Yellow, Calcein used for cell segmentation, Blue, DAPI nuclear stain.

For series [1], the system named is primary human non-small-cell lung cancer (NSCLC) cells. As to the kind of experiment: LC3, p62 and PAS staining of lung cancer cells. The format is cell-based. The protocol:
FIGS. 20A-20B include fluorescent micrographs showing primary non-small cell-lung cancer. Cells were treated and stained for the autophagic substrates LC3 (20A) and p62 (20B) as in 19A-19B.
NAD+ and NADH are key precursors for the electron transfer chain, TCA cycle, glycolysis, amino acid synthesis, fatty acid synthesis, and nucleotide synthesis. The NAD+/NADH ratio reports the extent of overall catabolism and the balance between glycolysis and OxPhos. The increase in the NAD+/NADH ratio means acceleration of electron flow in the mitochondrial electron transport chain (note, not mitochondrial ATP production) and of glycolysis to better manage metabolic demands. Furthermore, Sirt1 induction, often associated with increased NAD+/NADH ratio, is a well-documented and innovative anti-aging, calorie restriction-mimic and anti-cancer therapeutic strategy (see for example Hyun et al., (2020)). Thus, the results in Gsd1a cells (FIG. 21), showing induction of the NAD+/NADH ratio, as well as Sirt1, indicate that 144DG11 is a promising therapy for a plethora of different metabolic disorders, aging-related complications, and cancer.

As for `COCCN(Cc1sccc1C)C(=O)c1cc(C)nc(O)c1` [Compound 1], in the series on Gbe^ys/ys mice (9.5 months old mice), the hypoglycemia and hyperlipidemia entry is recorded as “corrected to control levels”; the “muscle (creatine kinase) and liver (alanine transferase) functions” value is on record as “not affected”. In the series on Gbe^ys/ys mice (9.5 months old, p<0.05), the blood glucose result is given as “increased” and the blood triglycerides result is “decreased”. For the same molecule, in the series with APBD cells, the “number of proteins down-modulated by APBD and up-modulated by compound” value came out at 49; the “number of proteins up-modulated by APBD and down-modulated by compound” value is reported as 39. Also, in the series on APBD cells (glycogen overladen (48 h starvation/24 h Gluc)), the “share of all proteins modified” value is given as 1.3%. In addition, the “share of all proteins modified” value in the series on APBD cells (starved (48 h starvation)) was 1.7%. In addition, in the series on PD primary fibroblasts, the “glycogen (PAS staining)” value was “reduce glycogen; also recorded: significantly lowered PAS staining”. Besides, in series [1], the “autophagy (LC3, p62)” value was “induced autophagy” and the glycogen levels entry is given as “did not lower glycogen levels”.
